Broadly, the IC50 is the concentration that inhibits the measured activity by half. The low end stands for greater potency, the high end for weaker potency.

The record followed here is ChEMBL document CHEMBL3112525, “Synthesis and biological evaluation of 4-(1,2,3-triazol-1-yl)coumarin derivatives as potential antitumor agents” (Bioorg Med Chem Lett, 2014).

Assay [1] has as its system MCF7. Briefly: Antiproliferative activity against human MCF7 cells after 48 hrs by MTT assay. The class given is functional, cell-based. The settings on record: MCF7, 48 h. On the technique in general: Tetrazolium assays rely on reduction of a dye to a coloured formazan, in cell work by metabolically active cells.
In another assay the test system is SW480. Briefly: Antiproliferative activity against human SW480 cells after 48 hrs by MTT assay. The conditions noted are these: SW480, 48 h. Type of assay: functional, cell-based.
Assay [2] has as its system A549. Kind of assay: Antiproliferative activity against human A549 cells after 48 hrs by MTT assay. The class given is functional, cell-based. The conditions noted are these: A549, 48 h.
The subject of assay [3] is A549. Kind of assay: Induction of apoptosis in human A549 cells assessed as late apoptotic cells at after 48 hrs by annexin V-FITC and propidium iodide staining-based flow cytometry (reference value: 2.87 %). Type of assay: functional.
The subject of assay [4] is MCF7. Kind of assay: Cell cycle arrest in human MCF7 cells assessed as accumulation at G2/M phase at 5 uM after 48 hrs by flow cytometry (Rvb =15.78 %). Type of assay: functional.
For assay [5], the system named is A549. Briefly: Induction of apoptosis in human A549 cells assessed as late necrotic cells at after 48 hrs by annexin V-FITC and propidium iodide staining-based flow cytometry (reference value: 0.920 %). The class given is functional. In general terms: Flow cytometry measures light scatter and fluorescence of single cells or particles in a stream.
Assay [6] deals with MCF7. Briefly: Cell cycle arrest in human MCF7 cells assessed as accumulation at S phase at 5 uM after 48 hrs by flow cytometry (Rvb =31.40 %). The class given is functional.
Assay [7] concerns MCF7. Briefly: Cell cycle arrest in human MCF7 cells assessed as accumulation at G1 phase at 5 uM after 48 hrs by flow cytometry (Rvb =52.82 %). Type of assay: functional.
For assay [8], the system named is A549. Briefly: Induction of apoptosis in human A549 cells assessed as viable cells at after 48 hrs by annexin V-FITC and propidium iodide staining-based flow cytometry (reference value: 95.5 %). Type of assay: functional.
Assay [9] concerns A549. Briefly: Induction of apoptosis in human A549 cells assessed as early apoptotic cells at after 48 hrs by annexin V-FITC and propidium iodide staining-based flow cytometry (reference value: 0.720 %). The class given is functional.

Turning to `COc1cccc2c1C(=O)c1c(O)c3c(c(O)c1C2=O)C[C@@](O)(C(=O)CO)C[C@@H]3O[C@H]1C[C@H](N)[C@H](O)[C@H](C)O1` [DOXORUBICIN], the IC50 was 3.51 µM with MCF7 [1], 2.43 µM with SW480 and 1.65 µM with A549 [2].

On to `CS(=O)(=O)Oc1ccc2c(-n3cc(COc4ccccc4)nn3)cc(=O)oc2c1`, for which the IC50 in the assay with MCF7 [1] was 45.8 µM; in the assay with SW480, 10.7 µM; with A549 [2], 9.14 µM.

For `COc1cc(CN2CCN(c3cc(=O)oc4ccccc34)CC2)ccc1O`, the IC50 in the assay with MCF7 [1], with SW480 and with A549 [2] was greater than 50 µM each time.

Turning to `O=c1cc(-n2cc(COc3ccnc4ccc(Br)cc34)nn2)c2cc(Br)ccc2o1`, the IC50 was found to be 41.6 µM with MCF7 [1], 16.9 µM in the assay with SW480 and 13.3 µM in the assay with A549 [2].

As to `O=c1cc(-n2cc(COc3ccccc3O)nn2)c2cc(Br)ccc2o1`, the IC50 is 24.8 µM in the assay with MCF7 [1], 19.1 µM in the assay with SW480 and 7.94 µM in the assay on A549 [2].

Consider `O=c1cc(-n2cc(COc3ccccc3Br)nn2)c2cc(Br)ccc2o1`, for which the IC50 in the assay on MCF7 [1] is 28.9 µM; in the assay on SW480, 20.1 µM; with A549 [2], 8.43 µM.

Regarding `O=c1cc(-n2cc(CSc3ccccc3)nn2)c2cc(Br)ccc2o1`, the IC50 with MCF7 [1] amounted to 36.8 µM; in the assay with SW480, 15.4 µM; with A549 [2], 3.51 µM.

Consider `COc1ccc(CN2CCN(c3cc(=O)oc4ccccc34)CC2)cc1OC`, for which the IC50 in the assay on MCF7 [1], in the assay on SW480 and in the assay on A549 [2] was greater than 50 µM each time.

`O=c1cc(N2CCN(Cc3ccc(F)cc3)CC2)c2ccccc2o1`: the IC50 in the assay with MCF7 [1], in the assay with SW480 and in the assay on A549 [2] was greater than 50 µM throughout.

For the compound `O=c1cc(-n2cc(COc3ccc(F)cc3)nn2)c2cc(Br)ccc2o1`, the IC50 in the assay with MCF7 [1] was determined as 7 µM; in the assay on SW480, 1.77 µM; with A549 [2] it was 0.85 µM.

Consider `CCOC(=O)c1ccc(OCc2cn(-c3c([N+](=O)[O-])cnc4ccc(Br)cc34)nn2)cc1`, for which it took 13.9 µM to reach half-maximal inhibition with MCF7 [1] (IC50). In other words, the double-digit micromolar range.

Consider `O=c1cc(-n2cc(COc3ccc(F)cc3)nn2)c2cc(O)ccc2o1`, for which the IC50 with MCF7 [1] is 4.62 µM; in the assay on SW480, 2.72 µM; in the assay on A549 [2], 2.01 µM.

As for `O=c1cc(N2CCN(Cc3ccccc3O)CC2)c2ccccc2o1`, the IC50 in the assay with MCF7 [1], with SW480 and in the assay on A549 [2] was greater than 50 µM each time.

For the compound `COc1ccc(OCCN2CCN(c3cc(=O)oc4ccccc34)CC2)cc1`, the results for the IC50 in the assay with MCF7 [1], in the assay with SW480 and in the assay on A549 [2] were 24.2 µM, 35 µM and 21.6 µM, respectively.

Consider `O=c1cc(-n2cc(COc3cccnc3)nn2)c2cc(Br)ccc2o1`, for which the results for the IC50 in the assay on MCF7 [1], in the assay with SW480 and in the assay with A549 [2] were 39.8 µM, 39.8 µM and 24.8 µM, respectively.

For `O=c1cc(-n2cc(CNc3ccccc3)nn2)c2cc(Br)ccc2o1`, the IC50 with MCF7 [1] was greater than 50 µM; in the assay on SW480, 18.4 µM; with A549 [2], 13.2 µM.

As to `COC(=O)c1ccc(OCc2cn(-c3cc(=O)oc4ccc(Br)cc34)nn2)cc1`, the IC50 in the assay on MCF7 [1] stood at 3.13 µM; in the assay with SW480 it was 3.62 µM; in the assay with A549 [2], 0.66 µM.

Turning to `O=c1cc(-n2cc(COc3ccccc3)nn2)c2ccc(OS(=O)(=O)c3ccc(F)cc3)cc2o1`, the IC50 in the assay with MCF7 [1], with SW480 and in the assay on A549 [2] was greater than 50 µM in each case.

On to `O=c1cc(-n2cc(COc3ccccc3)nn2)c2cc(OCCN3CCOCC3)ccc2o1`, for which the IC50 in the assay with MCF7 [1], with SW480 and with A549 [2] was greater than 50 µM each time.

`Nc1ccc(OCc2cn(-c3cc(=O)oc4ccc(Br)cc34)nn2)cc1`: the figures for the IC50 in the assay on MCF7 [1], in the assay on SW480 and in the assay with A549 [2] were 2.04 µM, 2.09 µM and 11.8 µM, respectively.

Take `COc1ccc2oc(=O)cc(-n3cc(COc4ccc(F)cc4)nn3)c2c1`: the IC50 stood at 8.56 µM in the assay on MCF7 [1], 25.9 µM in the assay with SW480 and 3.15 µM in the assay with A549 [2].

For the compound `COC(=O)c1ccccc1OCc1cn(-c2cc(=O)oc3ccc(Br)cc23)nn1`, the IC50 in the assay on MCF7 [1] was found to be 34.1 µM; in the assay on SW480, 20.2 µM; in the assay with A549 [2], 5.25 µM.

In the case of `O=c1cc(-n2cc(COc3ccc(C(F)(F)F)cc3)nn2)c2cc(Br)ccc2o1`, the IC50 was determined as 11.4 µM in the assay on MCF7 [1], 3.09 µM with SW480 and 1.62 µM in the assay on A549 [2].

On to `O=c1cc(-n2cc(COc3ccccc3)nn2)c2cc(O)ccc2o1`, for which the IC50 in the assay on MCF7 [1], with SW480 and with A549 [2] was greater than 50 µM in each case.

For the compound `O=c1cc(-n2cc(COc3ccc(Br)cc3)nn2)c2cc(Br)ccc2o1`, the IC50 with MCF7 [1] was 1.92 µM; in the assay on SW480 it was 1.31 µM; in the assay on A549 [2], 24.5 µM.

Take `O=c1cc(-n2cc(COc3ccc(F)cc3)nn2)c2ccccc2o1`: the IC50 in the assay with MCF7 [1] was determined as 5.84 µM; with SW480 it was 3.82 µM; in the assay with A549 [2], 0.68 µM.

Turning to `O=c1cc(N2CCN(Cc3ccccc3)CC2)c2ccccc2o1`, the IC50 with MCF7 [1], in the assay on SW480 and in the assay with A549 [2] was greater than 50 µM each time.

Take `O=c1cc(N2CCN(CCOc3ccc(F)cc3)CC2)c2ccccc2o1`: the IC50 was greater than 50 µM in the assay with MCF7 [1], 24 µM with SW480 and 11.9 µM in the assay on A549 [2].

Compound `O=[N+]([O-])c1cnc2ccc(Br)cc2c1-n1cc(CSc2ccccc2)nn1` registered an IC50 with MCF7 [1] of 22.7 µM. That is a double-digit micromolar value.

Take `COc1ccc(CN2CCN(c3cc(=O)oc4ccccc34)CC2)cc1`: the IC50 with MCF7 [1], with SW480 and in the assay on A549 [2] was greater than 50 µM each time.

As for `O=c1cc(-n2cc(-c3ccccc3)nn2)c2cc(Br)ccc2o1`, the values for the IC50 with MCF7 [1], in the assay on SW480 and in the assay with A549 [2] were 9.45 µM, 6.66 µM and 11.2 µM, respectively.

For `COc1ccc2c(-n3cc(COc4ccc(F)cc4)nn3)cc(=O)oc2c1`, the Activity in the assay on A549 [3] came to 15.9%; in the assay on MCF7 [4], 84.21%; in the assay with A549 [5] it was 12.3%; in the assay with MCF7 [6] it was 12.73%; with MCF7 [7], 3.06%; in the assay with A549 [8] it was 52.3%. The Activity in the assay with A549 [9] is recorded as 19.5%. The results for the IC50 in the assay with MCF7 [1], in the assay on SW480 and in the assay with A549 [2] were 5.89 µM, 1.99 µM and 0.52 µM, respectively.

Turning to `O=c1cc(N2CCN(Cc3cccc(O)c3)CC2)c2ccccc2o1`, the half-inhibitory concentration (IC50) with MCF7 [1], in the assay on SW480 and in the assay with A549 [2] was greater than 50 µM in each case.

With `O=c1cc(-n2cc(COc3ccccc3)nn2)c2cc(Br)ccc2o1`, the IC50 in the assay with MCF7 [1] turned out to be 1.72 µM; in the assay with SW480, 4.99 µM; in the assay with A549 [2], 12.3 µM.

In the assay on MCF7 [1], `O=[N+]([O-])c1cnc2ccc(Br)cc2c1-n1cc(COc2ccccc2)nn1` gave an IC50 of 7.69 µM.

On to `CCc1ccc(OCc2cn(-c3cc(=O)oc4ccc(Br)cc34)nn2)cc1`, for which the concentration for half-maximal inhibition (IC50) in the assay with MCF7 [1] is 12.7 µM; with SW480, 10.8 µM; with A549 [2], 11.6 µM.
